From patent US4752469A, “Potentiators of beta-lactam antibiotics” (E. R. Squibb & Sons, Inc., priority 1984, dated 1988)
In brackets after ≈: the same amount, converted by molar mass. Entries after “also recorded” stand apart in the source; their conditions may differ. Read-outs that look alike come from different tables or passages of the source. Starred links: 1 amine or outer side, 2 acyl side, 3 side chain; linkers in the order of their positions; H or OH if unused. Non-standard residues stand in square brackets, D forms with d. Residues, ends and D or L forms follow the SMILES beside them. ξ: configuration not given here. *: point of attachment. X1 = CC(=O)N[C@H]1[C@H](OC2CC(C(=O)[*:2])N([*:1])C2CO)O[C@H](CO)[C@@H](OS(=O)(=O)O)[C@@H]1O; βGlcNAc = CC(=O)N[C@@H]1[C@@H](O)[C@H](O)[C@@H](CO)O[C@H]1*; ξE = NC(CCC(=O)O)C(=O)O; ξK = NCCCCC(N)C(=O)O; ξT = CC(O)C(N)C(=O)O; ξS = NC(CO)C(=O)O

Experiments:
[1] = system: gram-negative bacteria; assay: enhancement of antibacterial activity of β-lactam antibiotics (general statement); type: cell-based; conditions: e.g., aztreonam, ampicillin, piperacillin and moxalactam, in words
Text: Moellering, Jr. in: Antibiotics in Laboratory Medicine, ed. V. Lorian, pps. 298-341, Williams and Wilkins, 1980.

[2] = system: Salmonella typhosa SC 1195
[3] = system: Proteus rettgeri SC 8479; conditions: for potentiation of cell wall synthesis inhibitors other than β-lactams: Proteus rettgeri system; for potentiation of cell wall synthesis inhibitors other than β-lactams / potentiation of β-lactam antibiotics: in words; for potentiation of β-lactam antibiotics: vs. Proteus rettgeri
Method: (§1) The technique used was the double disk diffusion test, described by D. J. Krogstad and R. C. Moellering, Jr. in: Antibiotics in Laboratory Medicine, ed. V. Lorian, pps. 298-341, Williams and Wilkins, 1980. Disks contained 30 μg of compound, and unless noted otherwise, were placed adjacent to each other on the surface of a nutrient agar seeded with a test organism in a Petri dish.

[4] = system: Escherichia coli SC 8294; conditions: for Interaction: Escherichia coli SC 8294; for potentiation of β-lactam antibiotics: vs. Escherichia coli, in words
Method: as §1

[5] = system: Proteus mirabilis SC 3855; conditions: agar dilution
[6] = system: Staphylococcus aureus SC 1276; conditions: agar dilution
[7] = system: Proteus vulqaris SC 9416; conditions: agar dilution
[8] = system: Proteus rettgeri SC 8479; conditions: agar dilution
[9] = 30 μg/disc compound plus Cefoxitin 30 μg/disc
[10] = 30 μg/disc compound plus Cephalothin 30 μg/disc
[11] = 30 μg/disc compound plus Mecillinam 10 μg/disc
[12] = 30 μg/disc compound plus N--f-thienamycin 30 μg/disc

| Structure (SMILES) | enhancement of the antibacterial activity of β-lactam antibiotics [1] | potentiation of cell wall synthesis inhibitors other than β-lactams [3] | potentiation of β-lactam antibiotics [3] | Interaction [4, 9] | Interaction [4, 10] | Interaction [4, 11] | Interaction [4, 12] | potentiation of β-lactam antibiotics [4] | further results |
| --- | --- | --- | --- | --- | --- | --- | --- | --- | --- |
| CC(=O)N[C@H]1[C@H](OC2CC(C(=O)NC(CCCCN)C(=O)NC(C(=O)NC(CO)C(=O)NC(CCC(=O)O)C(=O)NC(CO)C(=O)O)C(C)O[C@@H]3O[C@H](CO)[C@@H](O)[C@H](O)[C@H]3NC(C)=O)NC2CO)O[C@H](CO)[C@@H](OS(=O)(=O)O)[C@@H]1O (some centres unmarked) [SQ 28,546] (H-[X1][ξK][ξT](βGlcNAc)[ξS][ξE][ξS]-OH) | potentiates the antibiotic activity of several β-lactam antibiotics; also recorded: enhance the antibacterial activity of β-lactam antibiotics | potentiation occurs with cell wall synthesis inhibitors other than β-lactams | potentiate the activity of β-lactam antibiotics | I | I | I | I | potentiate the activity of β-lactam antibiotics | MIC [2]: 25.0 µg/mL (≈ 21.2 µM); Interaction ([3]; 30 μg/disc compound plus Vancomycin 30 μg/disc, Proteus rettgeri SC 8479): I; Interaction ([4]; 30 μg/disc compound plus Azocillin 30 μg/disc): I; Interaction ([4]; 30 μg/disc compound plus Cefamandole 30 μg/disc): I; Interaction ([4]; 30 μg/disc compound plus Cefotaxime 30 μg/disc): I; Interaction ([4]; 30 μg/disc compound plus Diumycin 30 μg/disc): I; Interaction ([4]; 30 μg/disc compound plus Fosfonomycin 30 μg/disc): I; Interaction ([4]; 30 μg/disc compound plus Penicillin G 100 Units/disc): I; Interaction ([4]; 30 μg/disc compound plus Vancomycin 30 μg/disc): I; MIC [5]: 25 µg/mL (≈ 21.2 µM); MIC [6]: > 100 µg/mL; MIC [7]: 12.5 µg/mL (≈ 10.6 µM); MIC [8]: 12.5 µg/mL (≈ 10.6 µM) |
| CC(=O)N[C@@H]1[C@H](O[C@@H]2C[C@@H](C(=O)N[C@@H](CCCCN)C(=O)N[C@H](C(=O)N[C@@H](CO)C(=O)O)[C@@H](C)O[C@@H]3O[C@@H](CO)[C@@H](O)[C@H](O)[C@@H]3NC(C)=O)NC2CO)O[C@@H](CO)[C@@H](OS(=O)(=O)O)[C@@H]1O (some centres unmarked) [SQ 28,504] | potentiates the antibiotic activity of several β-lactam antibiotics; also recorded: enhance the antibacterial activity of β-lactam antibiotics | potentiation occurs with cell wall synthesis inhibitors other than β-lactams | potentiate the activity of β-lactam antibiotics | I | I | I | I | potentiate the activity of β-lactam antibiotics |  |
